The subject of one experiment is PC3 cells. Kind of experiment: PC3 growth inhibition (Cell-titer glo, 72 hours). Type of experiment: cell-based. The note with it: Homo sapiens, read-out: Percent Inhibition (PC3 growth inhibition); for inhibition at 1.667 µM: compound concentration 1.667 μM. The method in brief: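 PC3 cells in RPMI1640 seeded overnight at 37 °C, 5% CO2, then exposed to compound diluted in AIM serum-free medium for 72 h. Viability by CellTiter-Glo luminescence vs DMSO controls; single-concentration % remaining viability (1 μM or 1.667 μM), or GI50/LD50 from curves.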

A further experiment addresses hNAMPT protein (Homo sapiens (Human), UniProt P43490). As to the kind of experiment: NAMPT enzyme assay (TR-FRET/HTRF, BodiPY ligand, anti 6His-Tb). In kind it is binding. The note with it: for IC50: NAMPT IC50 range class, read-out: IC50; for inhibition at 1 µM: read-out: Percent Inhibition. In a few lines:
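TR-FRET binding assay in which His-tagged human NAMPT with anti-6His-Tb is displaced by compound from a BodiPY ligand, incubated 1 h at rt in the dark. Excitation was at 320 nm, with the 520/486 nm emission ratio read. IC50 was fitted from inhibition relative to DMSO controls.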
A general note: TR-FRET usually uses a lanthanide donor and a delayed reading to cut background.

The mark [1] stands for this setting: PC-3, compound concentration 1 μM, PC3 cells, 72 hours, Cell-titer glo.
Setting [2] is: PC-3, PC3 cells, 72 hours, Cell-titer glo.

In general, inhibition refers to the drop in the measured response relative to a control, in per cent. One may read the IC50 as the concentration at which inhibition is half-maximal.

Like-named read-outs stand apart in the source and are kept apart here.

Chain of hNAMPT protein (P43490 whole entry): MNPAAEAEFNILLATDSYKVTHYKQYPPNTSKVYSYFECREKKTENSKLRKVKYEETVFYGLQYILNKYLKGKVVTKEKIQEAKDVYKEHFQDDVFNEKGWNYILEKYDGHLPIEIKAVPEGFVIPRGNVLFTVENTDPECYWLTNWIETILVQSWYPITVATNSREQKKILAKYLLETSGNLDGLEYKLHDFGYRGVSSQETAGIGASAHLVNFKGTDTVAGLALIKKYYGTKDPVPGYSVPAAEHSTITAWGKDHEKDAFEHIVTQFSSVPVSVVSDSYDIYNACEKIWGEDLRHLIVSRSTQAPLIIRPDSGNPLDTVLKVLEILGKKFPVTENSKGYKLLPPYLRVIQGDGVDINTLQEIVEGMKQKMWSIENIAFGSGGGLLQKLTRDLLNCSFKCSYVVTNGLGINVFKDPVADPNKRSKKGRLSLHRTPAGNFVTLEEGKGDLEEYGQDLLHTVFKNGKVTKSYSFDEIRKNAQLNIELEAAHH

Consider `O=C(NCCn1cccn1)c1ccc2nc(-c3ccc(F)cc3)c(-c3ccc(F)cc3)nc2c1` [Compound I-83, 2,3-bis(4-fluorophenyl)-N-[2-(1H-pyrazol-1-yl)ethyl]quinoxaline-6-carboxamide], for which the inhibition at 1 µM was found to be 96% with PC3 cells (setting [1]) and 33% on hNAMPT protein (compound concentration 1 μM). Also, the IC50 at hNAMPT protein was 2 to 10 µM.

For `CN(CCc1cccnc1)C(=O)c1ccc2nc(-c3ccc(F)cc3)c(-c3ccc(F)cc3)nc2c1` [Compound I-84, 2,3-bis(4-fluorophenyl)-N-methyl-N-[2-(pyridin-3-yl)ethyl]quinoxaline-6-carboxamide], the inhibition at 1 µM with PC3 cells (setting [1]) was 85%; at hNAMPT protein (compound concentration 1 μM), 17%. On hNAMPT protein, the IC50 lay within 2 to 10 µM.

Consider `CC(C)(C)OC(=O)NCc1cccc(-c2nc3cc(C(=O)NCCCn4ccnc4)ccc3nc2-c2ccccc2)c1` [Compound I-85, tert-Butyl [3-(7-{[3-(1H-imidazol-1-yl)propyl]carbamoyl}-3-phenylquinoxalin-2-yl)benzyl]carbamate], for which, in the experiment with PC3 cells (PC-3, 72 h), the inhibition at 1 µM was found to be 8%. At hNAMPT protein, the IC50 is 2 to 10 µM and the inhibition at 1 µM came to 25%.

With `O=C(NCCOc1cccnc1)c1ccc2nc(Cl)c(-c3ccc(F)cc3)nc2c1` [Compound I-86, 2-chloro-3-(4-fluorophenyl)-N-[2-(pyridin-3-yloxy)ethyl]quinoxaline-6-carboxamide], the inhibition at 1.667 µM in the experiment with PC3 cells (setting [2]) came to 3%. The IC50 on hNAMPT protein is less than 0.1 µM. In addition, the inhibition at 1 µM at hNAMPT protein (compound concentration 1 μM) came out at 62%.

For `O=C(NCCCn1ccnc1)c1ccc2nc(-c3ccccc3)c(N3CCCC(O)C3)nc2c1` (stereo not drawn) [Compound I-87, 3-(3-hydroxypiperidin-1-yl)-N-[3-(1H-imidazol-1-yl)propyl]-2-phenylquinoxaline-6-carboxamide], the inhibition at 1 µM in the experiment on PC3 cells (setting [1]) is -7%; at hNAMPT protein (compound concentration 1 μM), 39%. The IC50 at hNAMPT protein was in the range of 1 to 2 µM.

Take `O=C(NCCCn1ccnc1)c1ccc2nc(CN3CCOCC3)c(-c3ccccc3)nc2c1` [Compound I-88, N-[3-(1H-imidazol-1-yl)propyl]-2-(morpholin-4-ylmethyl)-3-phenylquinoxaline-6-carboxamide]: the inhibition at 1 µM in the experiment on PC3 cells (setting [1]) is -7%; on hNAMPT protein (compound concentration 1 μM) it was 41%. Also, the IC50 at hNAMPT protein lay in the range of 1 to 2 µM.

Consider `NS(=O)(=O)c1cccc(-c2nc3ccc(C(=O)NCCCn4ccnc4)cc3nc2-c2ccccc2)c1` [Compound I-89, N-[3-(1H-imidazol-1-yl)propyl]-3-phenyl-2-(3-sulfamoylphenyl)quinoxaline-6-carboxamide], for which the inhibition at 1 µM was -7% with PC3 cells (setting [1]) and 68% at hNAMPT protein (compound concentration 1 μM). Besides, the IC50 at hNAMPT protein lay within 0.1 to 0.5 µM.

Take `O=C(NCCCn1ccnc1)c1ccc2nc(N3CCC(O)C3)c(-c3ccccc3)nc2c1` (stereo not drawn) [Compound I-90, 2-(3-hydroxypyrrolidin-1-yl)-N-[3-(1H-imidazol-1-yl)propyl]-3-phenylquinoxaline-6-carboxamide]: the inhibition at 1 µM in the experiment with PC3 cells (setting [1]) was -7%; at hNAMPT protein (compound concentration 1 μM), 54%. The IC50 on hNAMPT protein fell in the range of 0.5 to 1 µM.

In the case of `COc1cccc(-c2nc3cc(C(=O)NCCCc4ncc[nH]4)ccc3nc2N2CCC(N3CCOCC3)CC2)c1` [Compound I-91, N-[3-(1H-imidazol-2-yl)propyl]-3-(3-methoxyphenyl)-2-[4-(morpholin-4-yl)piperidin-1-yl]quinoxaline-6-carboxamide], in the experiment with PC3 cells (setting [2]), the inhibition at 1.667 µM turned out to be 2%. In addition, the IC50 on hNAMPT protein is less than 0.1 µM. Further, the inhibition at 1 µM on hNAMPT protein (compound concentration 1 μM) is 99%.

For `O=C(NCCCn1ccnc1)c1ccc2nc(-c3ccccn3)c(-c3ccccc3)nc2c1` [Compound I-92, N-[3-(1H-imidazol-1-yl)propyl]-3-phenyl-2-(pyridin-2-yl)quinoxaline-6-carboxamide], the inhibition at 1 µM in the experiment with PC3 cells (setting [1]) is -7%; at hNAMPT protein (compound concentration 1 μM), 48%. Moreover, the IC50 at hNAMPT protein is 1 to 2 µM.

Regarding `O=C(NCCc1cccnc1)c1ccc2nc(-c3ccccc3)c(-c3ccccc3)nc2c1` [Compound I-93, 2,3-diphenyl-N-[2-(pyridin-3-yl)ethyl]quinoxaline-6-carboxamide], the inhibition at 1 µM with PC3 cells (setting [1]) came to 15%; on hNAMPT protein (compound concentration 1 μM), 52%. In addition, the IC50 on hNAMPT protein fell in the range of 0.5 to 1 µM.

Regarding `O=C(NCCCc1cn[nH]c1)c1ccc2nc(N3CCCCC3)c(-c3ccc(F)cc3)nc2c1` [Compound I-94, 3-(4-fluorophenyl)-2-(piperidin-1-yl)-N-[3-(1H-pyrazol-4-yl)propyl]quinoxaline-6-carboxamide], in the experiment with PC3 cells (setting [2]), the inhibition at 1.667 µM was found to be 34%. Moreover, the IC50 at hNAMPT protein was less than 0.1 µM. Moreover, at hNAMPT protein (compound concentration 1 μM), the inhibition at 1 µM is 92%.

Turning to `O=C(NCCCn1ccnc1)c1ccc2nc(-c3ccccc3)c(-c3cccc(OC(F)(F)F)c3)nc2c1` [Compound I-95, N-[3-(1H-imidazol-1-yl)propyl]-2-phenyl-3-[3-(trifluoromethoxy)phenyl]quinoxaline-6-carboxamide], the inhibition at 1 µM with PC3 cells (setting [1]) worked out at 1%; at hNAMPT protein (compound concentration 1 μM) it was 61%. Also, on hNAMPT protein, the IC50 lay in the range of 0.5 to 1 µM.

For the compound `O=C(NCCCn1ccnc1)c1ccc2nc(N3CCOCC3)c(-c3ccccc3)nc2c1` [Compound I-96, N-[3-(1H-imidazol-1-yl)propyl]-2-(morpholin-4-yl)-3-phenylquinoxaline-6-carboxamide], the inhibition at 1 µM in the experiment on PC3 cells (setting [1]) was determined as 0%; at hNAMPT protein (compound concentration 1 μM) it was 82%. The IC50 on hNAMPT protein was in the range of 0.1 to 0.5 µM.

Turning to `O=C(NCCCn1ccnc1)c1ccc2nc(-c3ccccc3)c(-c3ccc4[nH]ccc4c3)nc2c1` [Compound I-97, N-[3-(1H-imidazol-1-yl)propyl]-3-(1H-indol-5-yl)-2-phenylquinoxaline-6-carboxamide], the inhibition at 1 µM turned out to be 1% with PC3 cells (setting [1]) and 58% on hNAMPT protein (compound concentration 1 μM). The IC50 on hNAMPT protein lay in the range of 0.5 to 1 µM.

Turning to `COc1ccc(-c2nc3ccc(C(=O)NCCCn4ccnc4)cc3nc2-c2ccccc2)cc1` [Compound I-99, N-[3-(1H-imidazol-1-yl)propyl]-2-(4-methoxyphenyl)-3-phenylquinoxaline-6-carboxamide], the values for the inhibition at 1 µM in the experiment with PC3 cells (setting [1]) and at hNAMPT protein (compound concentration 1 μM) were -8% and 75%, respectively. The half-inhibitory concentration (IC50) at hNAMPT protein fell in the range of 0.1 to 0.5 µM.

In the case of `O=C(NCCCn1ccnc1)c1ccc2nc(N3CCCC(O)C3)c(-c3ccccc3)nc2c1` (stereo not drawn) [Compound I-100, 2-(3-hydroxypiperidin-1-yl)-N-[3-(1H-imidazol-1-yl)propyl]-3-phenylquinoxaline-6-carboxamide], the inhibition at 1 µM in the experiment on PC3 cells (setting [1]) was -7%; on hNAMPT protein (compound concentration 1 μM), 85%. The IC50 at hNAMPT protein fell in the range of 0.1 to 0.5 µM.

Consider `CS(=O)(=O)C1CCN(c2nc3cc(C(=O)NCCCn4ccnc4)ccc3nc2-c2ccccc2)C1` (stereo not drawn) [Compound I-101, N-[3-(1H-imidazol-1-yl)propyl]-3-[3-(methylsulfonyl)pyrrolidin-1-yl]-2-phenylquinoxaline-6-carboxamide], for which the inhibition at 1 µM stood at 7% in the experiment on PC3 cells (setting [1]) and 16% at hNAMPT protein (compound concentration 1 μM). The IC50 on hNAMPT protein was 2 to 10 µM.

`O=C(NCCc1ncc[nH]1)c1ccc2nc(Cl)c(-c3ccc(F)cc3)nc2c1` [Compound I-102, 2-chloro-3-(4-fluorophenyl)-N-[2-(1H-imidazol-2-yl)ethyl]quinoxaline-6-carboxamide]: in the experiment with PC3 cells (setting [2]), the inhibition at 1.667 µM was greater than 99%. Besides, at hNAMPT protein, the IC50 is 0.5 to 1 µM. Further, on hNAMPT protein (compound concentration 1 μM), the inhibition at 1 µM was determined as 38%.

For `O=C(NCCCc1ccnnc1)c1ccc2nc(N3CCCCC3)c(-c3ccc(F)cc3)nc2c1` [Compound I-103, 3-(4-fluorophenyl)-2-(piperidin-1-yl)-N-[3-(pyridazin-4-yl)propyl]quinoxaline-6-carboxamide], in the experiment with PC3 cells (setting [2]), the inhibition at 1.667 µM was determined as 58%. In addition, on hNAMPT protein, the IC50 is less than 0.1 µM. The inhibition at 1 µM on hNAMPT protein (compound concentration 1 μM) turned out to be 96%.

Take `O=C(NCCCc1ncc[nH]1)c1ccc2nc(N3CCOCC3)c(-c3ccc(Cl)cc3)nc2c1` [Compound I-104, 3-(4-chlorophenyl)-N-[3-(1H-imidazol-2-yl)propyl]-2-(morpholin-4-yl)quinoxaline-6-carboxamide]: in the experiment on PC3 cells (setting [2]), the inhibition at 1.667 µM amounted to 2%. Moreover, the half-inhibitory concentration (IC50) on hNAMPT protein is less than 0.1 µM. Also, the inhibition at 1 µM on hNAMPT protein (compound concentration 1 μM) is 100%.

With `O=C(NCCCn1ccnc1)c1ccc2nc(N3CCC(O)CC3)c(-c3ccccc3)nc2c1` [Compound I-105, 2-(4-hydroxypiperidin-1-yl)-N-[3-(1H-imidazol-1-yl)propyl]-3-phenylquinoxaline-6-carboxamide], the inhibition at 1 µM with PC3 cells (setting [1]) is -7%; at hNAMPT protein (compound concentration 1 μM) it was 92%. Besides, the IC50 on hNAMPT protein was less than 0.1 µM.

In the case of `N#CC1CCN(c2nc3ccc(C(=O)NCCCn4ccnc4)cc3nc2-c2ccccc2)C1` (stereo not drawn) [Compound I-106, 2-(3-cyanopyrrolidin-1-yl)-N-[3-(1H-imidazol-1-yl)propyl]-3-phenylquinoxaline-6-carboxamide], the inhibition at 1 µM was -5% in the experiment with PC3 cells (setting [1]) and 60% at hNAMPT protein (compound concentration 1 μM). Moreover, on hNAMPT protein, the IC50 fell in the range of 0.5 to 1 µM.

On to `O=C(NCCCn1ccnc1)c1ccc2nc(-c3ccco3)c(-c3ccco3)nc2c1` [Compound I-107, 2,3-di(2-furyl)-N-[3-(1H-imidazol-1-yl)propyl]quinoxaline-6-carboxamide], for which the inhibition at 1 µM with PC3 cells (setting [1]) is 102%; on hNAMPT protein (compound concentration 1 μM), 47%. Also, on hNAMPT protein, the IC50 is 1 to 2 µM.

With `Cn1ccc(CCNC(=O)c2ccc3nc(-c4ccc(F)cc4)c(-c4ccc(F)cc4)nc3c2)n1` [Compound I-108, 2,3-bis(4-fluorophenyl)-N-[2-(1-methyl-1H-pyrazol-3-yl)ethyl]quinoxaline-6-carboxamide], the inhibition at 1 µM in the experiment with PC3 cells (setting [1]) came out at 93%; on hNAMPT protein (compound concentration 1 μM) it was 44%. Besides, the IC50 on hNAMPT protein fell in the range of 1 to 2 µM.

These data come from patent publication US10144742B2 (Millennium Pharmaceuticals, Inc., priority 2014, dated 2018).
